Results reported in US8952024B2, “Herbicidal pyrimidone derivatives” (E I du Pont de Nemours and Company, priority 2009, dated 2015).

How the values were obtained:
Format in all cases: in vivo
[1] = test system: yellow nutsedge (Cyperus esculentus); assay: Test B pre-/postemergence plant response
Method in brief: (§1)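 Pre-em in loam/sand; post-em at 1–4 leaf (2–18 cm) in peat mix. Solvent + surfactant formulation. Greenhouse 13–15 d; visual % control vs untreated, 0–100.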

[2] = test system: Italian ryegrass (Lolium multiflorum); assay: Test B pre-/postemergence plant response
Method in brief: as §1

[3] = test system: large crabgrass (Digitaria sanguinalis); assay: Test B pre-/postemergence plant response
Method in brief: as §1

[4] = test system: downy bromegrass (Bromus tectorum); assay: Test B pre-/postemergence plant response
Method in brief: as §1

[5] = test system: Surinam grass (Brachiaria decumbens); assay: Test B pre-/postemergence plant response
Method in brief: as §1

[6] = test system: goosegrass (Eleusine indica); assay: Test B pre-/postemergence plant response
Method in brief: as §1

[7] = test system: wheat (Triticum aestivum); assay: Test B pre-/postemergence plant response
Method in brief: as §1

[8] = test system: velvetleaf (Abutilon theophrasti); assay: Test B pre-/postemergence plant response
Method in brief: as §1

[9] = test system: woolly cupgrass (Eriochloa villosa); assay: Test B pre-/postemergence plant response
Method in brief: as §1

[10] = test system: morningglory (Ipomoea coccinea); assay: Test B pre-/postemergence plant response
Method in brief: as §1

[11] = test system: blackgrass (Alopecurus myosuroides); assay: Test B pre-/postemergence plant response
Method in brief: as §1

[12] = test system: pigweed (Amaranthus retroflexus); assay: Test A pre-/postemergence plant response
Method in brief: (§2)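 Approximately ten days after concurrent pre- and postemergence spraying in a greenhouse, plants were compared with untreated controls and rated visually for injury, 0 = no effect to 100 = complete control. Preemergence spray was directed onto loam/sand soil; postemergence targeted 1–2 leaf seedlings.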

[13] = test system: barnyardgrass (Echinochloa crus-galli); assay: Test A pre-/postemergence plant response
Method in brief: as §2

[14] = 250 g ai/ha, Preemergence, 0 to 100 scale
[15] = Postemergence, 31 g ai/ha, scale 0 to 100 (0 no effect, 100 complete control)
[16] = Postemergence, 62 g ai/ha, scale 0 (no effect) to 100 (complete control), 13 to 15 days
[17] = Postemergence, 125 g ai/ha, visual rating after 13 to 15 days, scale 0 (no effect) to 100 (complete control)
[18] = Postemergence, 250 g ai/ha, scale 0 to 100
[19] = Preemergence, 31 g ai/ha, scale 0 to 100 (0 no effect, 100 complete control)
[20] = Preemergence, 62 g ai/ha, scale 0 to 100, 0 no effect, 100 complete control
[21] = Preemergence, 125 g ai/ha, 0 to 100 scale
[22] = Postemergence, 125 g ai/ha, visual injury, 0 to 100 scale (0 no effect, 100 complete control), approx. ten days
[23] = Postemergence, 500 g ai/ha, 0 to 100 scale, 0 = no effect, 100 = complete control, approx. ten days
[24] = Preemergence, 125 g ai/ha, 0 to 100 scale, 0 = no effect, 100 = complete control
[25] = Preemergence, 500 g ai/ha, visual injury, 0 to 100 scale (0 no effect, 100 complete control), approx. ten days

For `O=C1CCCC([O-])=C1C(=O)c1cnc(-c2ccccc2)n(-c2ccccc2)c1=O.[K+]` [Compound 14], the “Plant response rating, Nutsedge, Yellow” value [1, 14] was 85, the “Plant response rating, Nutsedge, Yellow” value [1, 15] was 20 and the “Plant response rating, Nutsedge, Yellow” value [1, 16] was 30. For the same compound, the “Plant response rating, Nutsedge, Yellow” value [1, 17] was 30, the “Nutsedge, Yellow plant response rating” value [1, 18] was 50 and the “Plant response rating, Nutsedge, Yellow” value [1, 19] was 0. For the same compound, the “Plant response rating, Nutsedge, Yellow” value [1, 20] was 30, the “Nutsedge, Yellow plant response rating” value [1, 21] was 40 and the “Plant response rating, Ryegrass, Italian” value [2, 14] was 0. The “Plant response rating, Ryegrass, Italian” value [2, 15] was 0, the “Plant response rating, Ryegrass, Italian” value [2, 16] was 5 and the “Plant response rating, Ryegrass, Italian” value [2, 17] was 5. The “Ryegrass, Italian plant response rating” value [2, 18] was 50, the “Plant response rating, Ryegrass, Italian” value [2, 19] was 0 and the “Plant response rating, Ryegrass, Italian” value [2, 20] was 0. The “Ryegrass, Italian plant response rating” value [2, 21] was 0, the “Plant response rating, Crabgrass, Large” value [3, 14] was 100 and the “Plant response rating, Crabgrass, Large” value [3, 15] was 50. The “Plant response rating, Crabgrass, Large” value [3, 16] was 55, the “Plant response rating, Crabgrass, Large” value [3, 17] was 85 and the “Crabgrass, Large plant response rating” value [3, 18] was 85. For the same compound, the “Plant response rating, Crabgrass, Large” value [3, 19] was 5, the “Plant response rating, Crabgrass, Large” value [3, 20] was 50 and the “Crabgrass, Large plant response rating” value [3, 21] was 100. For the same compound, the “Plant response rating, Bromegrass, Downy” value [4, 14] was 0, the “Plant response rating, Bromegrass, Downy” value [4, 15] was 10 and the “Plant response rating, Bromegrass, Downy” value [4, 16] was 30. The “Plant response rating, Bromegrass, Downy” value [4, 17] was 50, the “Bromegrass, Downy plant response rating” value [4, 18] was 70 and the “Plant response rating, Bromegrass, Downy” value [4, 19] was 0. For the same compound, the “Plant response rating, Bromegrass, Downy” value [4, 20] was 0, the “Bromegrass, Downy plant response rating” value [4, 21] was 0 and the “Plant response rating, Surinam Grass” value [5, 14] was 80. For the same compound, the “Plant response rating, Surinam Grass” value [5, 15] was 40, the “Plant response rating, Surinam Grass” value [5, 16] was 50 and the “Plant response rating, Surinam Grass” value [5, 17] was 50. For the same compound, the “Surinam Grass plant response rating” value [5, 18] was 55, the “Plant response rating, Surinam Grass” value [5, 19] was 0 and the “Plant response rating, Surinam Grass” value [5, 20] was 5. For the same compound, the “Surinam Grass plant response rating” value [5, 21] was 60, the “Plant response rating, Goosegrass” value [6, 14] was 100 and the “Plant response rating, Goosegrass” value [6, 15] was 80. The “Plant response rating, Goosegrass” value [6, 16] was 80, the “Plant response rating, Goosegrass” value [6, 17] was 80 and the “Goosegrass plant response rating” value [6, 18] was 85. The “Plant response rating, Goosegrass” value [6, 19] was 70, the “Goosegrass plant response rating” value [6, 21] was 98 and the “Plant response rating, Wheat” value [7, 14] was 0. The “Plant response rating, Wheat” value [7, 15] was 0, the “Plant response rating, Wheat” value [7, 16] was 0 and the “Plant response rating, Wheat” value [7, 17] was 0. For the same compound, the “Wheat plant response rating” value [7, 18] was 20, the “Plant response rating, Wheat” value [7, 19] was 0 and the “Plant response rating, Wheat” value [7, 20] was 0. The “Wheat plant response rating” value [7, 21] was 0, the “Plant response rating, Velvetleaf” value [8, 14] was 100 and the “Plant response rating, Velvetleaf” value [8, 15] was 85. The “Plant response rating, Velvetleaf” value [8, 16] was 90, the “Plant response rating, Velvetleaf” value [8, 17] was 90 and the “Velvetleaf plant response rating” value [8, 18] was 100. For the same compound, the “Plant response rating, Velvetleaf” value [8, 19] was 70, the “Plant response rating, Velvetleaf” value [8, 20] was 98 and the “Velvetleaf plant response rating” value [8, 21] was 100. For the same compound, the “Plant response rating, Cupgrass, Woolly” value [9, 14] was 70, the “Plant response rating, Cupgrass, Woolly” value [9, 15] was 50 and the “Plant response rating, Cupgrass, Woolly” value [9, 16] was 80. The “Plant response rating, Cupgrass, Woolly” value [9, 17] was 80, the “Cupgrass, Woolly plant response rating” value [9, 18] was 80 and the “Plant response rating, Cupgrass, Woolly” value [9, 19] was 0. The “Plant response rating, Cupgrass, Woolly” value [9, 20] was 5, the “Cupgrass, Woolly plant response rating” value [9, 21] was 50 and the “Plant response rating, Morningglory” value [10, 14] was 100. The “Plant response rating, Morningglory” value [10, 15] was 70, the “Plant response rating, Morningglory” value [10, 16] was 70 and the “Plant response rating, Morningglory” value [10, 17] was 80. The “Morningglory plant response rating” value [10, 18] was 95, the “Plant response rating, Morningglory” value [10, 19] was 100 and the “Plant response rating, Morningglory” value [10, 20] was 100. The “Morningglory plant response rating” value [10, 21] was 100, the “Plant response rating, Blackgrass” value [11, 14] was 0 and the “Plant response rating, Blackgrass” value [11, 15] was 0. The “Plant response rating, Blackgrass” value [11, 16] was 0, the “Plant response rating, Blackgrass” value [11, 17] was 5 and the “Blackgrass plant response rating” value [11, 18] was 5. For the same compound, the “Plant response rating, Blackgrass” value [11, 19] was 0, the “Plant response rating, Blackgrass” value [11, 20] was 0 and the “Blackgrass plant response rating” value [11, 21] was 0. For the same compound, the “Pigweed plant response rating” value [12, 22] was 80, the “Plant response rating, Pigweed” value [12, 23] was 100 and the “Plant response rating, Pigweed” value [12, 24] was 100. For the same compound, the “Plant response rating, Pigweed” value [12, 25] was 100, the “Barnyardgrass plant response rating” value [13, 22] was 30 and the “Plant response rating, Barnyardgrass” value [13, 23] was 80. For the same compound, the “Plant response rating, Barnyardgrass” value [13, 24] was 10 and the “Plant response rating, Barnyardgrass” value [13, 25] was 70.
